Bridge positions count the residues as written; N and C are the ends. Ends that are not written are not given here.
How the values were obtained:
[1] = system: swine colonic microbiota metabolome; assay: LC-MS metabolomic profiling of swine colonic microbiota in PolyFermS model; type: cell-based; conditions: for impact on the metabolome of the swine colonic microbiota (LC-MS profiles, PCA): PolyFermS pellet extracts, 0.4 mM MccJ25, 4 mM reuterin, 0.6 mM rifampicin, MccJ25 effect decreased with time, rifampicin effect increased
Protocol: (§1) The in vitro fermentation model of the swine colon has been described elsewhere in detail ([Tanner et al., 2014]) and in our previous study ([Naimi et al., 2020]). […] Seeded with 30% (v/v) swine fecal beads, the inoculum reactor IR (useful volume of 250 mL) was fed fresh nutrient medium continuously (Figure 1A). Effluent from IR was used to continuously inoculate at 10% (v/v) the test reactors TR1 and TR2, which also received 90% (v/v) fresh medium (Figure 1B). The feed rate of the three reactors controlled using peristaltic pumps (model 120U, Watson-Marlow, Falmouth, Cornwall, United Kingdom) was set at 27 mL/h for a mean retention time in IR and TRs of 9 h. For the first 3 days, the IR was run in repeated-batch mode, the medium replaced every 12 h with fresh medium, in order to colonize fecal bead. Continuous feeding was then started, followed by 12 days of stabilization before connection to TR1 and TR2. Continuous culture was split into three periods: stabilization, treatment and wash. Conditions were kept constant in IR to assess the temporal stability of the system without any manipulation during the entire fermentation, while TR1 and TR2 were subjected to treatments for various periods. Between each period, culture was flushed from TR1 and TR2 as described previously ([Tanner et al., 2014]). TR1 and TR2 were subjected to a washing procedure with 10% chlorine solution to decontaminate and remove any historical effect of the previous periods. Briefly, TR1 and TR2 were disconnected from the IR, the entire medium was removed and reactors were filled with 10% freshly prepared chlorine solution. After stirring for 1 h, the reactors were rinsed twice by adding sterile distilled water and stirring for another hour. After complete removal of water and chlorine residues, reactors were filled with sterile fresh nutritive medium and reconnected to the IR. After each flush, they were stabilized for 3 days until a steady state was reached before starting the next treatment period.
Resulting networks were visualized using Cytoscape 3.7.1.

[2] = system: swine colonic microbiota; assay: PMA-qPCR counts of bacterial groups in PolyFermS swine colon fermentation model; type: cell-based; conditions: for impact on total bacterial counts: PolyFermS, with Salmonella Newport 10^7 cfu/mL, 0.4 mM MccJ25 or 4 mM reuterin, 24 h
Protocol: as §1
The inhibitory activity of MccJ25, reuterin and rifampicin against Salmonella Newport and the major bacterial species constituting the swine colonic microbiota were quantified using propidium-monoazide-coupled quantitative polymerase chain reaction (PMA-qPCR). Samples collected from the reactors were treated with propidium monoazide (PMA dye, Biotium, Inc., Hayward, CA, United States) for viable bacteria counts as described previously ([Fernandez et al., 2016]). […]
The quantitative PCR (qPCR) was performed in MicroAmp® Fast Optical 96-Well Reaction Plates with Barcode (Life Technologies Inc., Burlington, ON, Canada) on an ABI 7500 Real-Time PCR System (Applied Biosystems, Streetsville, ON, Canada). Each sample was analyzed in duplicate. […]

[3] = system: porcine intestinal microbiota; assay: 16S rRNA gene amplicon sequencing of microbiota in PolyFermS model (alpha/beta diversity, taxonomy); type: cell-based, swine; conditions: for change in microbial composition (PCoA of Bray Curtis similarity matrix, PERMANOVA) compared to Salmonella alone: 24 h fermentation, two replicates F1 and F2, 0.4 mM MccJ25, 4 mM reuterin, p value 0.001 for significant differences; for change in microbial composition (PCoA of Bray Curtis similarity matrix, PERMANOVA) compared to Salmonella alone / change in alpha diversity (Shannon index and number of observed ASVs): 0.6 mM rifampicin; for change in alpha diversity (Shannon index and number of observed ASVs): rifampicin effect from the 8-h time point until end of fermentation, 0.4 mM MccJ25, 4 mM reuterin
Protocol: as §1
The microbial community at different time points along the fermentation was analyzed by Illumina next-generation 16S rRNA gene amplicon sequencing. Taxonomic analysis were assessed by sequencing the bacterial 16S rRNA gene in the V3-V4 region using the amplification primers 341F (5′-CCTACGGGNGGCWGCAG-3′) and 805R (5′-[…]-3′) adapted to incorporate the transposon-based Illumina Nextera adapters (Illumina, United States) and a sample barcode sequence allowing multiplexed sequencing ([García-López et al., 2020]). High-throughput sequencing was performed at the Institute for Integrative Systems Biology (Université Laval, Québec, Canada) on a MiSeq platform using 2 × 300 bp paired-end sequencing (Illumina, United States). The raw sequence data have been submitted to European Nucleotide Archive (ENA) database with accession number PRJEB52762.
Raw data were processed using the DADA2 R package (version 1.14.1) ([Callahan et al., 2016]) to obtain exact amplicon sequence variants (ASVs) using the metabaRpipe R package^1. Briefly, forward and reverse reads were truncated after 260 and 250 nucleotides, respectively. After truncation, reads with expected error rates higher than three and four for forward and reverse reads, respectively, were removed. After filtering, error rate learning, ASV inference and denoising, reads were merged with a minimum overlap of 15 nucleotides. Chimeric sequences were identified and removed. Taxonomy was assigned to ASVs using DADA2 against SILVA database (v138.1) ([Glöckner et al., 2017]). Phylogenetic relatedness of ASVs, alpha diversity (Observed and Shannon indexes) and beta diversity analyses (Bray Curtis similarity matrix) were performed using the phyloseq R package ([McMurdie and Holmes, 2013]) and the DivComAnalyses packages^2.
The rarefied ASV table was used to calculate richness and diversity indices.

[4] = system: Salmonella Newport; conditions: PolyFermS continuous culture simulating swine proximal colon; ref Naimi et al., 2020; cited from earlier work
Excerpt: Microcin J25 (MccJ25) is one of the most studied Gram-negative bacteriocins. This 21-amino-acid posttranslationally modified peptide produced by E. coli is a potent inhibitor of Enterobacteriaceae including Salmonella ([Rintoul et al., 2001]). It is a typical lasso peptide ([Arnison et al., 2013]; [Wang and Zhang, 2018]) which is characterized by an 8-residue macrolactam ring that is closed by an isopeptide bond between the N-terminus and the side chain carboxylate of a glutamate at position 8. The ring is threaded by the resulting tail that is locked inside by two bulky amino acid side chains ... || Enumerating specific bacterial groups by PMA-qPCR provided first a global information on the composition of the swine gut microbial community. Rifampicin induced important changes in Bacteroides, Lactobacillaceae and total 16S rRNA gene contents at the end of the colonic fermentation while no major effects were observed when MccJ25 and reuterin were added separately. […] Taxonomically, rifampici ... || Since MccJ25 appears to be a potent inhibitor of Salmonella Newport in the PolyFermS continuous culture model of the porcine proximal colonic microbiome as shown previously ([Naimi et al., 2020]), it should be considered as a potential alternative to antibiotics in pork production. […] This is important since it has been shown that changes in gut microbiota composition are associated with various metabolic disorders and likely subject the ...

[5] = system: E. coli infection; conditions: highly purified MccJ25; ref Yu et al., 2022; cited from earlier work
Excerpt: (§2) The widespread use of antibiotics in livestock production has led to the emergence of antibiotic-multiresistant bacteria, which can infect humans via the food chain. The use of antibiotics as growth promoters has been banned outright in several industrialized countries, which has increased the urgency of the search for alternatives. Researchers began decades ago to propose bacteriocins as substitutes. In addition to their natural origin, being mostly indigenous to the gut microbiota, and their potent inhibitory activity, bacteriocins are most often endowed with a narrow spectrum of antibacteri ...

[6] = system: clinically relevant veterinary multidrug-resistant strains; conditions: highly purified MccJ25; ref Yu et al., 2022; cited from earlier work
Excerpt: as §2

[7] = system: weaned pigs; conditions: MccJ25 purity above 99%; ref Yu et al., 2017; cited from earlier work
Excerpt: (§3) Microcin J25 (MccJ25) is one of the most studied Gram-negative bacteriocins. This 21-amino-acid posttranslationally modified peptide produced by E. coli is a potent inhibitor of Enterobacteriaceae including Salmonella ([Rintoul et al., 2001]). It is a typical lasso peptide ([Arnison et al., 2013]; [Wang and Zhang, 2018]) which is characterized by an 8-residue macrolactam ring that is closed by an isopeptide bond between the N-terminus and the side chain carboxylate of a glutamate at position 8. The ring is threaded by the resulting tail that is locked inside by two bulky amino acid side chains ...

[8] = cited from earlier work
Excerpt: as §3

[9] = system: E. coli; conditions: reuterin 1.3 mM, without affecting other bacterial populations; ref Cleusix et al., 2008; cited from earlier work
Protocol: Enumerating specific bacterial groups by PMA-qPCR provided first a global information on the composition of the swine gut microbial community. Rifampicin induced important changes in Bacteroides, Lactobacillaceae and total 16S rRNA gene contents at the end of the colonic fermentation while no major effects were observed when MccJ25 and reuterin were added separately. […] Taxonomically, rifampici ...

[10] = PolyFermS TR1/TR2, Salmonella Newport 10^7 cfu/mL + 0.6 mM rifampicin, after 12 h, followed by regrowth

Compound	metabolomics profile after 24 h treatment ([1]; PolyFermS, 0.4 mM MccJ25 + Salmonella Newport, 24 h)	impact on total bacterial counts [2]	change in microbial composition (PCoA of Bray Curtis similarity matrix, PERMANOVA) compared to Salmonella alone [3]	change in alpha diversity (Shannon index and number of observed ASVs) [3]	inhibitory activity against Salmonella Newport [4]	effect on inflammation [5]	bactericidal activity in vitro [6]	effect of supplemented diet on weaned pigs [7]	stability to denaturing conditions, high temperatures, extreme pHs and certain proteases [8]	impact on the metabolome of the swine colonic microbiota (LC-MS profiles, PCA) [1]	change in amino acid levels in microbiota metabolome ([1]; PolyFermS, 0.6 mM rifampicin + Salmonella Newport, extracted ion chromatograms)	reduction of Bacteroides counts [2, 10]	reduction of total cell counts [2, 10]	relative abundance of Escherichia-Shigella (ASV002) ([3]; 0.6 mM rifampicin + Salmonella Newport, at 12 h, enriched from the 8-h time point)	taxonomic change at the phylum level ([3]; 0.6 mM rifampicin + Salmonella Newport, from the 6-h time point, both reactors F1 and F2)	effect on E. coli population [9]
Microcin J25 (GGAGHVPEYFVGIGTPISFYG; lactam N-8; also: lasso macrolactam, places not given here; UniProt Q9X2V7 38-58, looked up) [MccJ25, 21-amino-acid posttranslationally modified lasso peptide bacteriocin produced by E. coli; 8-residue macrolactam ring closed by isopeptide bond to Glu8]	close to that before treatment	did not induce significant impact	significant differences	did not induce a remarkable changes	remained potent over 24 h	decrease inflammation	efficient bactericidal activity	improve growth performance, and attenuate diarrhea and systematic inflammation	remarkable stability	–	–	–	–	–	–	–
CO[C@H]1/C=C/O[C@@]2(C)Oc3c(C)c(O)c4c(O)c(c(/C=N/N5CCN(C)CC5)c(O)c4c3C2=O)NC(=O)/C(C)=C\C=C\[C@H](C)[C@H](O)[C@@H](C)[C@@H](O)[C@@H](C)[C@H](OC(C)=O)[C@@H]1C [rifampicin, Rifampicin]	–	–	significant differences	significant decrease	inhibits Salmonella growth	–	–	–	–	significant effects	increase in the levels of Leu/Ile, Phe, Tyr and Trp amino acids	approximately 1 log	approximately 1 log	more than 44%	increase of the relative abundance of Proteobacteria and Firmicutes phyla	–
O=CCCO [reuterin, 3-hydroxypropanal]	–	did not induce significant impact	No significant changes	did not induce a remarkable changes	did not inhibit Salmonella Newport	–	–	–	–	no impact	–	–	–	–	–	significantly and selectively decrease E. coli

Source: article PMC9383034, “Impact of microcin J25 on the porcine microbiome in a continuous culture model” (Frontiers in Microbiology, 2022)
